{"source": "ChEMBL document CHEMBL1201862", "about": "“PubChem BioAssay data set” (2004)", "test_in_all_cases": "NCI tumour cell line growth inhibition, 48 h", "key": {"786-0": {"system": "786-0"}, "A549": {"system": "A549"}, "ACHN": {"system": "ACHN"}, "CAKI-1": {"system": "CAKI-1"}, "CCRF-CEM": {"system": "CCRF-CEM"}, "COLO 205": {"system": "COLO 205"}, "DMS-114": {"system": "DMS-114"}, "DMS-273": {"system": "DMS-273"}, "EKVX": {"system": "EKVX"}, "HCC 2998": {"system": "HCC 2998"}, "HCT-116": {"system": "HCT-116"}, "HCT-15": {"system": "HCT-15"}, "HL-60": {"system": "HL-60"}, "HOP-18": {"system": "HOP-18"}, "HOP-62": {"system": "HOP-62"}, "HOP-92": {"system": "HOP-92"}, "HT-29": {"system": "HT-29"}, "K562": {"system": "K562"}, "KM-20L2": {"system": "KM-20L2"}, "KM12": {"system": "KM12"}, "LXFL 529": {"system": "LXFL 529"}, "M14": {"system": "M14"}, "M19-MEL": {"system": "M19-MEL"}, "MOLT-4": {"system": "MOLT-4"}, "Malme-3M": {"system": "Malme-3M"}, "NCI-H226": {"system": "NCI-H226"}, "NCI-H460": {"system": "NCI-H460"}, "NCI-H522": {"system": "NCI-H522"}, "OVCAR-3": {"system": "OVCAR-3"}, "OVCAR-4": {"system": "OVCAR-4"}, "OVCAR-8": {"system": "OVCAR-8"}, "RPMI-8226": {"system": "RPMI-8226"}, "SF-268": {"system": "SF-268"}, "SF-295": {"system": "SF-295"}, "SF-539": {"system": "SF-539"}, "SK-MEL-28": {"system": "SK-MEL-28"}, "SK-MEL-2": {"system": "SK-MEL-2"}, "SK-MEL-5": {"system": "SK-MEL-5"}, "SN12C": {"system": "SN12C"}, "SNB-19": {"system": "SNB-19"}, "SNB-75": {"system": "SNB-75"}, "SR": {"system": "SR"}, "SW-620": {"system": "SW-620"}, "TK-10": {"system": "TK-10"}, "U-251": {"system": "U-251"}, "UACC-257": {"system": "UACC-257"}, "UACC-62": {"system": "UACC-62"}, "UO-31": {"system": "UO-31"}, "A498": {"system": "A498"}, "DLD-1": {"system": "DLD-1"}, "IGROV-1": {"system": "IGROV-1"}, "LOX IMVI": {"system": "LOX IMVI"}, "MCF7": {"system": "MCF7"}, "NCI-H23": {"system": "NCI-H23"}, "NCI/ADR-RES": {"system": "NCI/ADR-RES"}, "OVCAR-5": {"system": "OVCAR-5"}, "RXF 393": {"system": "RXF 393"}}, "note": "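Growth conditions: 96-well plates. Treatment: test compound, 48 hours, 5 concentrations. Analysis: linear interpolation between bracketing concentrations; unreached endpoints set to highest concentration. At the GI50, growth is halved.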 Calls of active or inactive are those of the source. Cut-off read from the data, not from the text of the source: active = GI50 up to about 1.1 µM and inactive = higher.", "data": [{"smiles": "C=CCCCCC1CCC2CCC(CCCCC=C)N12", "note": "(stereo unspecified)", "values": [{"measurement": "GI50", "setting": "786-0", "value": "13.7 µM (inactive)"}, {"measurement": "GI50", "setting": "A549", "value": "16.1 µM (inactive)"}, {"measurement": "GI50", "setting": "ACHN", "value": "14.6 µM (inactive)"}, {"measurement": "GI50", "setting": "CAKI-1", "value": "29.1 µM (inactive)"}, {"measurement": "GI50", "setting": "CCRF-CEM", "value": "11.6 µM (inactive)"}, {"measurement": "GI50", "setting": "COLO 205", "value": "16.2 µM (inactive)"}, {"measurement": "GI50", "setting": "DMS-114", "value": "15.7 µM (inactive)"}, {"measurement": "GI50", "setting": "DMS-273", "value": "20 µM (inactive)"}, {"measurement": "GI50", "setting": "EKVX", "value": "> 10 µM (inactive)"}, {"measurement": "GI50", "setting": "HCC 2998", "value": "16.1 µM (inactive)"}, {"measurement": "GI50", "setting": "HCT-116", "value": "14.2 µM (inactive)"}, {"measurement": "GI50", "setting": "HCT-15", "value": 6.3, "unit": "µM"}, {"measurement": "GI50", "setting": "HL-60", "value": "14.5 µM (inactive)"}, {"measurement": "GI50", "setting": "HOP-18", "value": "21.3 µM (inactive)"}, {"measurement": "GI50", "setting": "HOP-62", "value": "16 µM (inactive)"}, {"measurement": "GI50", "setting": "HOP-92", "value": "10.3 µM (inactive)"}, {"measurement": "GI50", "setting": "HT-29", "value": "9.38 µM (inactive)"}, {"measurement": "GI50", "setting": "K562", "value": "12.1 µM (inactive)"}, {"measurement": "GI50", "setting": "KM-20L2", "value": "12.1 µM (inactive)"}, {"measurement": "GI50", "setting": "KM12", "value": "15.8 µM (inactive)"}, {"measurement": "GI50", "setting": "LXFL 529", "value": "14 µM (inactive)"}, {"measurement": "GI50", "setting": "M14", "value": "15.4 µM (inactive)"}, {"measurement": "GI50", "setting": "M19-MEL", "value": "20.4 µM (inactive)"}, {"measurement": "GI50", "setting": "MOLT-4", "value": "15 µM (inactive)"}, {"measurement": "GI50", "setting": "Malme-3M", "value": "15.8 µM (inactive)"}, {"measurement": "GI50", "setting": "NCI-H226", "value": "18.2 µM (inactive)"}, {"measurement": "GI50", "setting": "NCI-H460", "value": "12.4 µM (inactive)"}, {"measurement": "GI50", "setting": "NCI-H522", "value": "14.2 µM (inactive)"}, {"measurement": "GI50", "setting": "OVCAR-3", "value": "15.1 µM (inactive)"}, {"measurement": "GI50", "setting": "OVCAR-4", "value": "13 µM (inactive)"}, {"measurement": "GI50", "setting": "OVCAR-8", "value": "17.7 µM (inactive)"}, {"measurement": "GI50", "setting": "RPMI-8226", "value": "16.1 µM (inactive)"}, {"measurement": "GI50", "setting": "SF-268", "value": "14.7 µM (inactive)"}, {"measurement": "GI50", "setting": "SF-295", "value": "13.4 µM (inactive)"}, {"measurement": "GI50", "setting": "SF-539", "value": "16.9 µM (inactive)"}, {"measurement": "GI50", "setting": "SK-MEL-28", "value": "17.7 µM (inactive)"}, {"measurement": "GI50", "setting": "SK-MEL-2", "value": "10.7 µM (inactive)"}, {"measurement": "GI50", "setting": "SK-MEL-5", "value": "13.9 µM (inactive)"}, {"measurement": "GI50", "setting": "SN12C", "value": "15.7 µM (inactive)"}, {"measurement": "GI50", "setting": "SNB-19", "value": "19 µM (inactive)"}, {"measurement": "GI50", "setting": "SNB-75", "value": "28.1 µM (inactive)"}, {"measurement": "GI50", "setting": "SR", "value": "14.2 µM (inactive)"}, {"measurement": "GI50", "setting": "SW-620", "value": "15.1 µM (inactive)"}, {"measurement": "GI50", "setting": "TK-10", "value": "16.6 µM (inactive)"}, {"measurement": "GI50", "setting": "U-251", "value": "20 µM (inactive)"}, {"measurement": "GI50", "setting": "UACC-257", "value": "15.2 µM (inactive)"}, {"measurement": "GI50", "setting": "UACC-62", "value": "15.7 µM (inactive)"}, {"measurement": "GI50", "setting": "UO-31", "value": "13.2 µM (inactive)"}]}, {"smiles": "COc1cc(C2c3cc4c(cc3[C@@H](Oc3ccc(F)cc3)C3COC(=O)[C@H]23)OCO4)cc(OC)c1O", "note": "(stereo partly specified)", "values": [{"measurement": "GI50", "setting": "A498", "value": "0.236 µM (active)"}, {"measurement": "GI50", "setting": "A549", "value": "0.405 µM (active)"}, {"measurement": "GI50", "setting": "CAKI-1", "value": "0.456 µM (active)"}, {"measurement": "GI50", "setting": "CCRF-CEM", "value": "0.368 µM (active)"}, {"measurement": "GI50", "setting": "COLO 205", "value": "1.75 µM (inactive)"}, {"measurement": "GI50", "setting": "DLD-1", "value": "0.656 µM (active)"}, {"measurement": "GI50", "setting": "DMS-273", "value": "0.337 µM (active)"}, {"measurement": "GI50", "setting": "EKVX", "value": "> 43.8 µM (inactive)"}, {"measurement": "GI50", "setting": "HCC 2998", "value": "2.28 µM (inactive)"}, {"measurement": "GI50", "setting": "HCT-116", "value": "0.347 µM (active)"}, {"measurement": "GI50", "setting": "HCT-15", "value": 0.364, "unit": "µM"}, {"measurement": "GI50", "setting": "HL-60", "value": "0.341 µM (active)"}, {"measurement": "GI50", "setting": "HOP-18", "value": "87.1 µM (inactive)"}, {"measurement": "GI50", "setting": "HOP-62", "value": "0.267 µM (active)"}, {"measurement": "GI50", "setting": "HOP-92", "value": "1.2 µM (inactive)"}, {"measurement": "GI50", "setting": "HT-29", "value": "0.284 µM (active)"}, {"measurement": "GI50", "setting": "IGROV-1", "value": "1.32 µM (inactive)"}, {"measurement": "GI50", "setting": "K562", "value": "0.457 µM (active)"}, {"measurement": "GI50", "setting": "KM-20L2", "value": "0.286 µM (active)"}, {"measurement": "GI50", "setting": "KM12", "value": "4.03 µM (inactive)"}, {"measurement": "GI50", "setting": "LOX IMVI", "value": "0.578 µM (active)"}, {"measurement": "GI50", "setting": "M19-MEL", "value": "0.671 µM (active)"}, {"measurement": "GI50", "setting": "MCF7", "value": "0.434 µM (active)"}, {"measurement": "GI50", "setting": "MOLT-4", "value": "0.359 µM (active)"}, {"measurement": "GI50", "setting": "Malme-3M", "value": "0.653 µM (active)"}, {"measurement": "GI50", "setting": "NCI-H226", "value": "0.417 µM (active)"}, {"measurement": "GI50", "setting": "NCI-H23", "value": "0.335 µM (active)"}, {"measurement": "GI50", "setting": "NCI-H460", "value": "0.343 µM (active)"}, {"measurement": "GI50", "setting": "NCI-H522", "value": "0.217 µM (active)"}, {"measurement": "GI50", "setting": "NCI/ADR-RES", "value": "0.22 µM (active)"}, {"measurement": "GI50", "setting": "OVCAR-3", "value": "1.75 µM (inactive)"}, {"measurement": "GI50", "setting": "OVCAR-4", "value": "6.79 µM (inactive)"}, {"measurement": "GI50", "setting": "OVCAR-5", "value": "> 100 µM (inactive)"}, {"measurement": "GI50", "setting": "OVCAR-8", "value": "0.447 µM (active)"}, {"measurement": "GI50", "setting": "RPMI-8226", "value": "0.461 µM (active)"}, {"measurement": "GI50", "setting": "RXF 393", "value": "0.234 µM (active)"}, {"measurement": "GI50", "setting": "SF-268", "value": "0.679 µM (active)"}, {"measurement": "GI50", "setting": "SF-295", "value": "0.807 µM (active)"}, {"measurement": "GI50", "setting": "SF-539", "value": "0.209 µM (active)"}, {"measurement": "GI50", "setting": "SK-MEL-28", "value": "3.15 µM (inactive)"}, {"measurement": "GI50", "setting": "SK-MEL-5", "value": "0.527 µM (active)"}, {"measurement": "GI50", "setting": "SN12C", "value": "3.19 µM (inactive)"}, {"measurement": "GI50", "setting": "SNB-75", "value": "0.287 µM (active)"}, {"measurement": "GI50", "setting": "SW-620", "value": "0.481 µM (active)"}, {"measurement": "GI50", "setting": "U-251", "value": "0.365 µM (active)"}, {"measurement": "GI50", "setting": "UACC-257", "value": "0.59 µM (active)"}, {"measurement": "GI50", "setting": "UACC-62", "value": "0.518 µM (active)"}, {"measurement": "GI50", "setting": "UO-31", "value": "> 67.5 µM (inactive)"}]}]}
